Earlier results as cited in patent US20090325918A1, “Synthesis and separation of optically active isomers and cyclopropyl derivatives of spironolactone and their biological action” (priority 2008, published 2009).

Columns and labels:
[1] = system: patients with congestive heart failure (CHF)
hypertensive patients = hypertensive patients using spironolactone for therapy; 1% of men in the placebo group

CC(=O)S[C@@H]1CC2=CC(=O)CC[C@]2(C)[C@H]2CC[C@@]3(C)[C@@H](CC[C@@]34CCC(=O)O4)[C@H]12 [spironolactone, 17-hydroxy-7-alpha-mercapto-3-oxo-17-alpha-pregn-4-ene-21-carboxylic acid gamma-lactone acetate]
Reduction in mortality (risk of death) ([1]; CHF patients taking digoxin and a loop diuretic, spironolactone with digitalis and ACE inhibitor): 30%
Patients who discontinued treatment because of adverse events ([1]; spironolactone group): 8%
Frequency of hospitalization for worsening heart failure, lower than in the placebo group ([1]; spironolactone treated group vs placebo group): 35%
Gynecomastia or tender breast enlargement, occurrence in patients (hypertensive patients): 10%
Water solubility: poor
